Values after ≈ are worked out from the molar mass of the structure shown.

The MIC is the smallest concentration in the dilution series that meets the test's criterion for growth inhibition.

Assay [1] deals with Mycobacterium tuberculosis. The experiment in a line: Ratio of MIC for Mycobacterium tuberculosis H37Rv overexpressing DprE1 to MIC for Mycobacterium tuberculosis H37Rv. The format is functional.
For assay [2], the system named is Mycobacterium tuberculosis. The assay is described as follows: Antimycobacterial activity against Mycobacterium tuberculosis H37Rv overexpressing DprE1. It counts as functional.

Take `CC(Nc1ccc2c(c1)OCCO2)C(=O)Nc1ccc(Br)cc1` (racemic): in assay [1], the Ratio was 8. In assay [2], this compound displayed an MIC of 62.5 µM (≈ 23.6 µg/mL).

(Values after ChEMBL document CHEMBL4619745, “Identification of 2-((2,3-dihydrobenzo[b][1,4]dioxin-6-yl)amino)-N-phenylpropanamides as a novel class of potent DprE1 inhibitors” (Bioorg Med Chem Lett, 2020).)
